The text below walks through data of PMC6135396, “Repurposing antimalarial aminoquinolines and related compounds for treatment of retinal neovascularization” (PLoS ONE, 2018).

Where two headings read alike, the source gives them in different places.

Series [1] is described as follows: Cytotoxicity, ATP-Lite, Fa2N-4 immortalized human hepatocytes. It counts as cell-based. Particulars: Fa2N-4 immortalized human hepatocytes. The method, then:
Fa2N-4 immortalized human hepatocytes (Xenotech) or HREC cells were grown to subconfluency in wells of a 96-well plate and exposed to different concentrations of compounds for 24 h after which the cells were washed and the media and compounds replaced. The cells were returned to the incubator for another 24 h. The extent of cell death (cell lysis) was determined by ATP-Lite reagent (Perkin-Elmer).

The nature of a further series: PAMPA permeability. It counts as in vitro ADME. On the technique in general: In PAMPA a lipid-coated filter parts donor from acceptor wells.
Another series is described as follows: Plasma stability, mouse. Format: in vitro ADME.
Series [2] can be described thus: Hepatic microsome stability, rat. It counts as in vitro ADME. Particulars: liver microsomes, pH 7.4, single phase, read-out: Hepatic microsome stability T1/2. The method, then:
Hepatic microsomes stability assays were performed as reported before. […] After preincubation at 37°C for 10 min, enzyme reactions were initiated by adding 120 μL of NADPH-generating system (2 mM NADP^+, 10 mM glucose-6-phosphate, 0.4 U/ml glucose-6-phosphate dehydrogenase, and 5 mM MgCl2) in the presence of 100 mM potassium phosphate buffer (pH 7.4). The final concentration of each model compound used was 1 μM. The microsomal concentrations used were 1.0 mg/mL. Compounds were incubated in microsomes for 0, 5, 15, 30 and 60 min. The reactions were stopped by the addition of ice cold ACN and the reaction mixtures were centrifuged at 10,000g for 10 min before the supernatant was removed for analysis.
Except for the primary assay in the HTS campaign, all experiments were repeated at least three times. Results are expressed as mean ± SEM. The Mann-Whitney test was used to determine statistical significance of the densitometry data of Western blot analysis. Unpaired two-tailed Student’s t-test was performed for the significance of the results of ELISA and in vitro tubule formation assay. ANOVA was used to determine the significance in vivo CNV models using the Tukey post-hoc test for multiple comparisons. […] T1/2 was calculated using the best fit curve resulting from non-linear (human) or linear (mouse and rat) regression analyses using Prism 7.
A general note: Liver microsomes are a subcellular fraction often used to study metabolism.

Series [3] can be described thus: Tissue distribution in the mouse eye after intravitreal injection. Format: in vivo. Particulars: 7 d after IVT administration. The method, then: Mice were assigned to groups (n = 6/group) that received either 50 μg compound, or vehicle via intravitreal injection (1 μl volume). One day after injection, ½ of the mice (n = 3 / group) mice were euthanized. The eyes were enucleated and the vitreous humor, retina, and RPE/Choroid/sclera were isolated and snap frozen in liquid N2. The remaining mice in each treatment group (n = 3 / group) were euthanized and the same tissues collected. The quantity of compound in the tissues (n = 6 eyes / treatment group) was measured using LC-MS/MS.

Another series deals with T1, APJ (Homo sapiens, UniProt P35414).
T1 sequence (P35414 1-380): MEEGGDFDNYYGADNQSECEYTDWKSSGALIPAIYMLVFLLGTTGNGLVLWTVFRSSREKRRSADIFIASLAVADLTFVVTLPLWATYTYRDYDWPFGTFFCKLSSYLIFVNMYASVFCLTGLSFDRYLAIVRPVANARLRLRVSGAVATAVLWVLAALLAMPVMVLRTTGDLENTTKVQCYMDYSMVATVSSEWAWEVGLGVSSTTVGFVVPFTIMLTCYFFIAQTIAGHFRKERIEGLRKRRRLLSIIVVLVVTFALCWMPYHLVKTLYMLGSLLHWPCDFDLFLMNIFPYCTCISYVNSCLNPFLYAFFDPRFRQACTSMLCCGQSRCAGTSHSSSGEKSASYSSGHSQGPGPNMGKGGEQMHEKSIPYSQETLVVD
Nature of the series: APJ cAMP assay (primary, cAMP HitHunter, CHO-K1-APJ cells). The arrangement: host or cells: CHO-K1 (CHO-K1-APJ / CHO-k1-AGTRL1). Format: cell-based. The method, then:
To identify small-molecule antagonists of the apelin receptor (APJ) we interrogated the SBP compound file of ~425,000 compounds using CHO-k1-AGTRL1 cells overexpressing human APJ and a competitive immunoassay of intracellular cAMP [59]. The compound file was screened at a concentration of 10 μM. For all 333 plates assayed, the average Z-factor = 0.68 and the average S/B = 8.2, indicating a robust assay performance. […] There were 2550 compounds that met this criterion, representing a hit rate of ~0.6%. […] Included in this hit set was a series of aminoquinolines, exemplified by compound 1 (Fig 1B). […] As part of an initial hit-validation strategy, these compounds and three other commercially available analogs were purchased for further testing. The purity and identify of all compounds were confirmed by NMR and LC-MS, and they were subsequently retested in a battery of cell-based assays of APJ function and counter screens. […] (Fig 1D).
PathHunter™ GPCR Arrestin and cAMP Hunter™ cell lines (DiscoveRx Corp., Fremont, CA) were used to assay G-protein-dependent signaling and β-arrestin recruitment to APJ. CHO-K1 cells stably expressing APJ (CHO-K1-APJ) or AT1 (CHO-K1-AT1) with β-arrestin/β-galactosidase enzyme fragment complementation constructs were maintained in HAM's F-12 medium (Hyclone, Logan, UT) supplemented with 10% FBS, 1X Penicillin-Streptomycin-Glutamine (Invitrogen; Carlsbad, CA), 300 μg/ml hygromycin (EMD Biosciences, San Diego, CA), and 800 μg/ml Geneticin (Cellgro, Manassas, VA). Primary Human Retinal Microvascular Endothelial Cells (HRECs) were purchased from Cell Systems (Kirkland, WA) and maintained in Complete Classic Medium with CultureBoost-R™ (Cell Systems). Parent CHO-K1 cells were obtained from ATCC and maintained in HAM’s F-12 medium supplemented with 10% FBS, and1X Penicillin-Streptomycin-Glutamine (Invitrogen; Carlsbad, CA). All cells were incubated at 37°C (5% CO2, 95% relative humidity) and maintained at less than 70% to 80% confluence (approximately 75,000 cells/cm^2). Cell heterologously expressing APJ or AT1 were not used after 10 passages. HRECs were not used in any experiments after five passages.
All reagents unless otherwise specified are components of the cAMP HitHunter (DiscoveRx) kit. Ligand Buffer + 60 μM Forskolin (Cayman Chemical, Ann Arbor, MI) was made fresh on the day of the experiment and used for the dilution of positive and negative controls as well as all peptides. CHO-K1-APJ cells were dispensed into a 1536-well tissue culture microplate (Corning, Corning, NY) using a Multidrop at a seeding density of 1,000 cells/well and returned to the incubator. The next day, the cell culture media was removed and replaced with 15 μl/well of assay buffer (1X HBSS, 10 mM HEPES) containing anti-cAMP antibody (DiscoveRx). […] Plates were incubated at room temperature in the dark for 3 hours prior to chemiluminescence detection on an EnVision (Perkin Elmer) using a counting time of 1 s/well.
A general note: Changes in cAMP serve as a functional read-out for many G protein-coupled receptors.

What is called IC50 is the concentration needed to halve the response being measured. Low values mean greater potency, high ones weaker potency. As to `CCN(CC)Cc1cc(Nc2ccnc3cc(Cl)ccc23)ccc1O` [AQ, amodiaquine], in series [1] (ATP-lite assay, Fa2-N4 cells), the IC50 at 48 h is > 50 µM. The CC50 at 48 h in series [1] (Fa2N-4 cells, read-out: Cytotoxicity LC50) was > 50 µM. Moreover, the Papp in the series “PAMPA permeability” (Donor pH 5.0, Acceptor pH 7.4, read-out: PAMPA permeability Pe) was found to be 3 ×10⁻⁶ cm/s; in the series “PAMPA permeability” (Donor pH 6.2, Acceptor pH 7.4, read-out: PAMPA permeability Pe), 9.6 ×10⁻⁶ cm/s; in “PAMPA permeability” (pH 7.4, Donor pH 7.4, Acceptor pH 7.4, read-out: PAMPA permeability Pe) it was 54 ×10⁻⁶ cm/s. The same compound showed a Plasma stability in “Plasma stability, mouse” of 36.1 % remaining at 3 hrs. In addition, in series [2], the half-life at 1 μM amounted to 38.9 min. The “AQ level in plasma” value in series [3] is “No detectable levels”. Also, the IC50 against APJ was determined as 3.45 ± 0.028 µM. Further, on APJ (Ap13 concentration response curves after pre-incubation with AQ, Schild-type analysis), the “Mode of APJ antagonism” value is given as “non-competitive APJ antagonist”.
